# Where two headings read alike, the source gives them in different places.
# Experiments:
# Intracellular ATP levels = format: cell-based; details: read-out: ATP TC50; for CC50 at 72 h: SK-MEL28, 72 HR, run #2
# Experimental: Intracellular ATP Levels: Cellular Adenosine triphosphate (ATP) was determined with an assay based on a reaction between ATP+D-luciferin+oxygen catalyzed by luciferase to yield Oxyluciferin+AMP+PPi+CO2+light. The emitted light is proportional to the amount of ATP present. […] In addition, a unique cell lysis reagent inhibits endogenous ATPases and therefore stabilizes cellular ATP by preventing its degradation to ADP. ATP is present in all-living cells and declines rapidly upon cell death. In addition, this assay in combination with the MTT assay provides an indicator of mitochondrial activity and energy status of the cell.
# Plates were analyzed immediately or stored at −20° C. until needed. On the day of analysis, the plates were thawed and calibration curve prepared with ATP in the same liquid matrix as samples. ATP was quantified by adding ATP substrate solution and then reading luminescence on a Packard Fusion Luminescence or equivalent plate reader.
# Intracellular ATP Levels: ATP levels in treated cells could be determined by using the regression coefficients obtained from the linear regression analysis of the calibration curve. Thus, values could be expressed as pmoles ATP/million cells. Background corrected luminescence was used to determine percent change relative to controls by dividing treated values by control values and multiplying by 100.
# Dosing solutions were prepared in complete culture medium.
# P-glycoprotein (PgP) = P-glycoprotein (PgP) (Homo sapiens, UniProt P08183); assay: P-glycoprotein (PgP) binding: MTT with and without cyclosporin A, human hepatocytes; format: cell-based; parameters: SK-MEL28, human hepatocytes, HUVEC, C32, and NHEM cells were used as the test systems; endogenous in cells; details: for % Control (Compound + CSA) / % Control (Compound): human hepatocytes 24 HR, MTT; for % Control (Compound + CSA): with cyclosporin A; for % Control (Compound): without CSA; for % Difference: human hepatocytes, 24 HR
# P-glycoprotein (PgP), sequence (P08183 whole entry): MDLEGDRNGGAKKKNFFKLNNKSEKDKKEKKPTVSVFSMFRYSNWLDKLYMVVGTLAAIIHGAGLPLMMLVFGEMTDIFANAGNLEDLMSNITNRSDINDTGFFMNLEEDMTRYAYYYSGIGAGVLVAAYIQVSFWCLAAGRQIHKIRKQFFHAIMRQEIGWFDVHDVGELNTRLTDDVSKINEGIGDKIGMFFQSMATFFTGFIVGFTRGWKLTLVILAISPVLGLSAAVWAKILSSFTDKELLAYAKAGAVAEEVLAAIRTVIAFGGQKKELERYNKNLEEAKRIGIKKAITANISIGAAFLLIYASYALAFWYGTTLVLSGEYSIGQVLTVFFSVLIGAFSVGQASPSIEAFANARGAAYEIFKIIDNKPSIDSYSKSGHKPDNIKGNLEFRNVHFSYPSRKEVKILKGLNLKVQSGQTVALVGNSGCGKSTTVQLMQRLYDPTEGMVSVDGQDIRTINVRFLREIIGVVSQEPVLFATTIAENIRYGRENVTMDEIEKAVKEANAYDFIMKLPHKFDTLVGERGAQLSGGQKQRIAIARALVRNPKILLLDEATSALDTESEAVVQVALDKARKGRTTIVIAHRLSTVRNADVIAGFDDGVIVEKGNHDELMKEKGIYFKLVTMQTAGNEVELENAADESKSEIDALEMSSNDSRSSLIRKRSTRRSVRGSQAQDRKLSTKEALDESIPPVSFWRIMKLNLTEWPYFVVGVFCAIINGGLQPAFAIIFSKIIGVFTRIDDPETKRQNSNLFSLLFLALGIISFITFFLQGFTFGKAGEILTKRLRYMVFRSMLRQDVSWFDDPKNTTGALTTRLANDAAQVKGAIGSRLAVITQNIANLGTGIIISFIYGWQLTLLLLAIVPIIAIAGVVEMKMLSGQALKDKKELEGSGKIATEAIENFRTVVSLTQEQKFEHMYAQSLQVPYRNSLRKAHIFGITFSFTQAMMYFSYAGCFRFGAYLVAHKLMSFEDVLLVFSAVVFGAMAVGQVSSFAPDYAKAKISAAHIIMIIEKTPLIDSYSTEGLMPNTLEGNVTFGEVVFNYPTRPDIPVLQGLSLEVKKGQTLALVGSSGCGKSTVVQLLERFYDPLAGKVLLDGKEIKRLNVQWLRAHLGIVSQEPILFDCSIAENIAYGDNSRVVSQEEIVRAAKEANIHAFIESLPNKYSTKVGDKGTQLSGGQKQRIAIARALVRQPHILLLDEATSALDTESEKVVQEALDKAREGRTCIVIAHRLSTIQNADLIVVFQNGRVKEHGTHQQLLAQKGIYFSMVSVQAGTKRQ
# Experimental: P-glycoprotein (PgP) transport proteins are expressed in the bile canalicular membrane of normal liver. However, in neoplastic cells it is not uncommon to have expression of this transporter system in the plasma membrane. The H4IIE cells have a very active efflux pump activity in the plasma membrane. As a result, compounds that are substrates for this transporter may not accumulate inside the cell. The existence of these transporters was evaluated with the Calcein-AM assay and with known substrates of PgP. […] Therefore, compounds that show negative toxicity should be evaluated as potential substrates of PgP and compared to data shown in the PgP table of this example.
# The cell supernatant or the cells themselves were harvested for biochemical analysis. General cytotoxicity was evaluated by monitoring membrane integrity, mitochondrial function, cell proliferation, oxidative stress, and apoptosis. In addition to monitoring biochemical changes essential for cell health, interaction with P-glycoprotein (PgP) and solubility were also assessed. The means of each exposure group (n=3-7) were calculated for each assay performed. Intra assay variation well to well was typically less than 10% with plate to plate variation typically less than 20%.
# human hepatocytes = assay: Predicted Ctox from Tox-Panel; format: cell-based; details: 24 HR
# Experimental: (§1) Studies such as these indicate that a preferred concentration for setting Ctox is the highest concentration at which there is no observed effect on any of the indicators being measured in the cluster analysis, especially a 24-hour cluster analysis. […] It will be apparent that 24 hour assays are more time-effective, and consequently, the 24 hour NOEL/Ctox represents a preferred data point to select as Ctox in a CATS assay. It will also be apparent that, with further time studies, it may be possible to select an equally suitable Ctox at other CATS assay time points (e.g., between 24 and 72 hours, or less than 24 hours).
# In certain embodiments, the predicting comprises performing concentration response analyses of measurements from at least three separate assays that are employed in the cluster analysis. […] From these concentration response analyses, the highest concentration of the chemical compound at which a measurable toxic effect of the chemical compound is not observable, i.e. NOEL, is determined and the Ctox is identified as the concentration that correlates to the NOEL. […]
# The results are summarized in Tables 14-17 and in FIGS. 83-102. […] Assay response is continually monitored to assure reliable results. […]
# HUVEC = assay: Predicted Ctox from Tox-Panel; format: cell-based, human; details: 24 HR
# Experimental: as §1
# (§2) In certain embodiments, the predicting comprises performing concentration response analyses of measurements from at least three separate assays that are employed in the cluster analysis. For example, in the cell health cluster, such predicting will involve monitoring the concentration response effect of the compound on a first health indicator which monitors cellular replication, a second cell health indicator which monitors mitochondrial function, and a third cell health indicator which monitors membrane integrity. Of course, it is understood that fourth, fifth, sixth or more cell health indicators also may be employed. From these concentration response analyses, the highest concentration of the chemical compound at which a measurable toxic effect of the chemical compound is not observable, i.e. NOEL, is determined and the Ctox is identified as the concentration that correlates to the NOEL. In choosing the concentrations of the compound for analysis, one of skill in the art should devise a dose response regimen which is selected to provide an indication of cell health at concentrations of at least two concentration values higher than the Ctox concentration.
# (§3) The results are summarized in Tables 14-17 and in FIGS. 83-102. Table 14 compares the test compound TC50 values for each assay endpoint. Test compounds are rank-ordered from most to least toxic based on their TC50 values and overall shape of the response curves. The Ctox value, or estimated sustained blood concentration where toxicity would first be expected to occur in a rat 14-day repeated dose study, is also included in this table. Negative and positive controls are included with every run. Assay response is continually monitored to assure reliable results. […] Table 15 summarizes oxidative stress and apoptosis data, Table 16 summarizes the solubility data, and Table 17 provides information on interaction with PgP.
# (§4) The Ctox value was developed using 24 hr in vitro (H4IIE) toxicity data and was validated by retrospectively evaluating compounds across different classes of drugs in 14-day rat studies in which compounds were administered on a daily basis and pharmacokinetic data was available. […] Thus, Ctox values are only determined for the 24 hr in vitro results. In this example, Ctox values could not be estimated due to low toxicity in most of the cell lines.
# NHEM cells = assay: Predicted Ctox from Tox-Panel; format: cell-based, human; details: 24 HR
# Experimental: as §1, §2, §3, §4
# SK-MEL28 cells = assay: Predicted Ctox from Tox-Panel; format: cell-based, human; details: SK-MEL28, 24 HR
# Experimental: as §1, §2, §3, §4
Structure (SMILES),CC50 at 24 h (Intracellular ATP levels; human hepatocytes),"CC50 at 72 h (Intracellular ATP levels; human, SK-MEL28 cells)",% Control (Compound + CSA) (P-glycoprotein (PgP)),% Control (Compound) (P-glycoprotein (PgP)),% Difference (P-glycoprotein (PgP)),Predicted Ctox (human hepatocytes),Predicted Ctox (HUVEC),Predicted Ctox (NHEM cells),Predicted Ctox (SK-MEL28 cells),Predicted Ctox (SK-MEL28 cells; run #2),"CC50 at 24 h (Intracellular ATP levels; human, HUVEC)","CC50 at 24 h (Intracellular ATP levels; human, SK-MEL28 cells, SK-MEL28, 24 HR)"
"C=C(C)[C@H]1Cc2c(ccc3c2O[C@@H]2COc4cc(OC)c(OC)cc4[C@@H]2C3=O)O1 [ROTENONE, Rotenone]",6 µM,2 µM,60.9%,97.1%,37.2%,0.6 µM,0.1 µM,10 µM,1 µM,0 µM,,
"CC[C@@]1(O)C(=O)OCc2c1cc1n(c2=O)Cc2cc3ccccc3nc2-1 [CAMPTOTHECIN, Camptothecin]",,0.1 µM,65.8%,88.5%,25.7%,23 µM,0.1 µM,33 µM,0.1 µM,0.1 µM,40 µM,293 µM

# Source: patent publication US7615361B2, “Toxicity screening methods” (Ceetox, Inc., priority 2006, dated 2009)
